Here are results for one compound from patent US20020183271A1, “Methods of treatment involving human MDA-7” (priority 2000, published 2002).

The assay has as its system Human umbilical vein endothelial cells (HUVEC). The experiment in a line: Tube formation assay (endothelial differentiation), vectors and Suramin. In kind it is cell-based. The following applies: vectors 10,000 vp/cell; Suramin 50 μM; Matrigel. The method, then: Human umbilical vein endothelial cells (HUVECs; Clonetics) were seeded on 1% gelatin-coated plates and incubated at 37° C. for 24 hours. […] Cells exposed to medium alone served as negative controls while cells exposed to Suramin (50 μM) served as positive controls. After a 48-hour incubation period (37° C. in serum-containing medium), infected cells were harvested, counted, and added to Matrigel-coated 24-well plates in triplicate (1.2×10^5 cells per well). Twenty-four hours later, cells were fixed with 10% buffered formalin and examined for differentiation (tube formation) by using an Olympus IX-70 inverted bright-field microscope at 4× and 10× magnification. cl Example 1
Tube Formation Assay. Human umbilical vein endothelial cells (HUVECs; Clonetics) were seeded on 1% gelatin-coated plates and incubated at 37° C. for 24 hours. After incubation, cells were infected for 1 hour with Ad-luc or Ad-mda 7 at 10,000 vp/cell in serum-free medium. Cells exposed to medium alone served as negative controls while cells exposed to Suramin (50 μM) served as positive controls. After a 48-hour incubation period (37° C. in serum-containing medium), infected cells were harvested, counted, and added to Matrigel-coated 24-well plates in triplicate (1.2×10^5 cells per well). […]

In the case of `Cc1ccc(C(=O)Nc2ccc(S(=O)(=O)O)c3cc(S(=O)(=O)O)cc(S(=O)(=O)O)c23)cc1NC(=O)c1cccc(NC(=O)Nc2cccc(C(=O)Nc3cc(C(=O)Nc4ccc(S(=O)(=O)O)c5cc(S(=O)(=O)O)cc(S(=O)(=O)O)c45)ccc3C)c2)c1` [Suramin], the endothelial tube formation entry is given as “known inhibitor of tube formation”.
